Measured values taken from publication PMC12406195, “Understanding the Modes of Action of β‑Ketoiminato Iridium(III) Complexes in Cancer Cells” (Inorganic Chemistry, 2025).

How the values were obtained:
[1] = test system: MDA-MB-231 cells; test: Nuclei morphology assay (DAPI); assay type: cell-based, human; settings: MDA-MB-231, 48 h
Description: The potential of compound 1 to trigger apoptosis in breast cancer cells was then studied. […] High-magnification insets (1–6) illustrate representative nuclear morphologies captured in the assay. Condensed, hyperintense nuclei with reduced area (e.g., images 1, 2 and 3), irregular nuclear blebs with discontinuous chromatin (e.g., images 3 and 4), and fragmented chromatin consistent with apoptotic bodies (e.g., images 5 and 6).
7 Microscopic visualization of nuclear morphology changes in MDA-MB-231 breast cancer cells after 48 h exposure to compound 1 or CDDP. […] Images were acquired using a Leica DMI8 fluorescence microscope at 40× magnification. […]
(§1) MDA-MB-231 cells at 4000 cells/well were seeded into a black clear -bottom 96-well plate using phenol-red free complete RMPI medium, and incubated for 48 h. […] Fluorescence images were obtained using a Zeiss Observer 7 inverted microscope at excitation at 488 nm and emission at 509 […]
(§2) Plasmid DNA (200 ng, pBOS -H2B-GFP, BD Biosciences) was incubated overnight at room temperature with 1 or CDDP at concentrations between 100 and 400 μM in double -distilled H2O (20 μL total volume). […] The experiment was conducted in two biological replicates, and the band intensities were quantified and analyzed using ImageJ software. […]

[2] = test system: MCF-7 cells; test: Chemosensitivity (MTT cell viability) assay, MCF-7; assay type: cell-based, human
Procedure: All cytotoxicity assays were conducted using human cell lines: breast adenocarcinomas (MDA-MB-231 and MCF-7), pancreatic carcinoma (MIA PaCa-2) and non-cancerous epithelial retinal (ARPE-19) cell lines. All cell lines were routinely maintained as monolayer cultures in appropriate complete media:
MCF-7, MIA PaCa-2 and ARPE-19 in high glucose DMEM and MDA-MB-231 in RPMI-1640, and both media were supplemented with 10% FBS, 1 mM sodium pyruvate, 2 mM L-glutamine, and 1% pen-strep. All cells were initially grown in T-25 or T-75 flasks at 37 °C and 5% CO2. Before chemosensitivity studies, cell monolayers were passaged using trypsin-EDTA (0.05%) and diluted to a concentration of 1 x 10^4 cells/mL (or 4 x 10^4 cells mL for 24 h assays). All assays were conducted in 96-well plates, in which 100 µL of the cell suspension was added for 24 h at 37 °C and 5% CO2, and then 100 µL of compound/medium dilutions for a further 96 h (or 24 h). All compound stocks were made using sterile DMSO at 100 mM before dilution, and a maximum of 0.1% DMSO was used in each assay. After incubation, 3-(4,5-dimethylthiazol-2-yl)-2,5-diphenyltetrazolium bromide (20 µL, 5 mg/mL in PBS) was added to each well and incubated for 3 h at 37°C and 5% CO2. All solutions were then aspirated, DMSO (150 µL) added to each well, gently mixed, and the absorbance was measured at 540 nm using a ClarioStar spectrophotometer microplate reader. Results were plotted on a logarithmic scale, and the half maximal inhibitory concentration (IC50) was determined from a triplicate of triplicate repeats (n = 9) and reported as an IC 50 ± Standard Deviation (SD).

[3] = test system: plasmid DNA; test: Plasmid DNA interaction, agarose gel electrophoresis; assay type: biochemical; settings: 200 ng plasmid DNA, 100–400 μM, cell-free
Procedure: The ability of compounds to intercalate, nick, or cleave DNA can be evaluated using gel electrophoresis with plasmid DNA. In this study, in vitro plasmid DNA assays were performed by incubating 200 ng of plasmid DNA with different concentrations (100–400 μM) of 1 or CDDP, which served as a positive control. The DNA fragments were then separated via agarose gel electrophoresis, and potential changes in DNA migration patterns were analyzed.
5 Plasmid DNA (200 ng) was incubated with varying concentrations (100, 200, and 400 μM) of compound 1 or CDDP for 24 h at room temperature. The DNA was then separated via agarose gel electrophoresis, and the intensity of supercoiled and nicked circular DNA bands was quantified and expressed as mean ± SEM (n = 4).
as §1, §2

[Cp*Ir(C16H14NO)(PTA)](PF6) [Compound 1]
Nuclear morphology [1]: typical apoptotic features like DNA fragmentation and condensation
IC50 ([2]; MCF-7, 96 h, n = 9): 48 ± 3 µM
Selectivity index (SI) ([2]; MCF-7 compared to ARPE-19, 96 h): 0.2
Plasmid DNA migration [3]: did not induce any apparent shift
